# Reference: patent US12077534B2, “Aza-heterobicyclic inhibitors of MAT2A and methods of use for treating cancer” (Les Laboratoires Servier SAS, priority 2018, dated 2024)
# Target: T1, MAT2A homodimer (Homo sapiens, UniProt P31153)
# T1 construct: inferred from Ni sepharose purification and imidazole elution; made in house; host or cells: SF9 insect cells, recombinant baculovirus (Bac to Bac, pFASTBAC1)
# Assay: MAT2A biochemical assay (phosphate release, PiColorLock Gold)
# Details: recombinant MAT2A homodimer, 60 min pre-incubation, 25° C.; read-out: Enzyme Inhibition
# Experimental: Mat2A protein was expressed by recombinant baculovirus in SF9 infected cells using the Bac to Bac system cloned into the pFASTBAC1 vector (Invitrogen, Carlsbad, CA). Recombinant MAT2A was isolated from the cell lysate of 150 g of infected cells using HP Ni sepharose column chromatography. Recombinant MAT2A homodimer was eluted with 250 and 500 mM imidazole, and fractions containing MAT2A were identified by sodium dodecyl sulfate polyacrylamide gel electrophoresis and pooled.
# For determination of the inhibitory potency of compounds against the MAT2A homodimer, protein was diluted to 4 μg/mL in assay buffer (50 mM Tris, pH 8.0, 50 mM KCl, 15 mM MgCl2, 0.3 mM EDTA, 0.005% [w/v] bovine serum albumin [BSA]). Test compound was prepared in 100% dimethyl sulfoxide (DMSO) at 50× the desired final concentration. A 1 μL volume of compound dilution was added to 40 μL of enzyme dilution and the mixture was allowed to equilibrate for 60 minutes at 25° C. The enzymatic assay was initiated by the addition of 10 μL of substrate mix (500 μM ATP, pH 7.0, 400 μM L-methionine in 1× assay buffer), and the mixture was incubated for a further 60 minutes at 25° C. The reaction was halted and the liberated phosphate released by the enzyme in stoichiometric amounts by the production of S-adenosyl methionine (SAM) was measured using the PiColorLock Gold kit (Innova Biosciences, UK). Absolute product amounts were determined by comparison to a standard curve of potassium phosphate buffer, pH 8.0.
# T1 sequence (P31153 whole entry): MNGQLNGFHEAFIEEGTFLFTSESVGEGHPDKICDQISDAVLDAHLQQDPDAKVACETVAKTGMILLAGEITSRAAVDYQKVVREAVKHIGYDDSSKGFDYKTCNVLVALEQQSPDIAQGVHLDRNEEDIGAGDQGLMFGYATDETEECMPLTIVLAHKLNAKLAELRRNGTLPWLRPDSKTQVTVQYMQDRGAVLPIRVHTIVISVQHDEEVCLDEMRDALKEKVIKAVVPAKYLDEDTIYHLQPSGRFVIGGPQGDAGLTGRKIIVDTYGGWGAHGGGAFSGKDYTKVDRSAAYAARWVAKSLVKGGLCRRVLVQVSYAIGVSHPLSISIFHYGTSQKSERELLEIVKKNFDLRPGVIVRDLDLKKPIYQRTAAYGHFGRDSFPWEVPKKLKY
row,SMILES,IC50 [nM]
1,COc1ccc(-n2nc3ccc(OCC(F)(F)F)nc3c(-c3ccc(Cl)cc3)c2=O)cc1 [Example 118],100 to 1000
2,Cn1cc2cc(-n3nc4ccc(N5CCC5)nc4c(-c4ccc(OC(F)F)cc4)c3=O)ccc2n1 [Example 164],100 to 1000
3,N#Cc1ccc(-n2nc3ccc(OCC(F)F)nc3c(-c3ccc(OC(F)F)cc3)c2=O)cc1 [Example 181],1000 to 10000
4,CNc1ccc(-n2nc3ccc(OCC(F)F)nc3c(-c3ccc(OC(F)F)cc3)c2=O)cc1 [Example 185],100 to 1000
5,O=c1c(-c2ccc(OC(F)F)cc2)c2nc(OCC(F)F)ccc2nn1-c1cncs1 [Example 186],100 to 1000
6,O=c1c(-c2ccc(OC(F)F)cc2)c2nc(OCC(F)F)ccc2nn1-c1ccc(Cl)cc1 [Example 190],1000 to 10000
7,"CN(C)c1ccc2nn(-c3ccc4nn(C)c(N(C)C)c4c3)c(=O)c(-c3ccc(OC(F)F)cc3)c2n1 [Example 204, 4-(4-(difluoromethoxy)phenyl)-6-(dimethylamino)-2-(3-(dimethylamino)-2-methyl-2H-indazol-5-yl)pyrido[3,2-c]pyridazin-3(2H)-one]",< 100
8,"O=C1CCC(n2nc3ccc(OCC(F)F)nc3c(-c3ccc(OC(F)F)cc3)c2=O)CC1 [Example 216, 6-(2,2-difluoroethoxy)-4-(4-(difluoromethoxy)phenyl)-2-(4-oxocyclohexyl)pyrido[3,2-c]pyridazin-3(2H)-one]",100 to 1000
9,Cc1ccc(-c2c(=O)n(-c3ccc4nn(C)cc4c3)nc3ccc(NC4CC4)nc23)cn1 [Example 306],< 100
10,COc1ccc(-c2c(=O)n(-c3ccc4nn(C)cc4c3)nc3ccc(NC4CC4)nc23)cn1 [Example 308],< 100
11,CCNc1ccc2nn(-c3ccc4ncsc4c3)c(=O)c(-c3ccc(C4CC4)cc3)c2n1 [Example 311],< 100
12,CCNc1ccc2nn(-c3ccc4nn(C)cc4c3)c(=O)c(-c3ccc(C4CC4)cc3)c2n1 [Example 312],< 100
13,Cn1cc2cc(-n3nc4ccc(OCC5CC5(F)F)nc4c(-c4ccc(C5CC5)nc4)c3=O)ccc2n1 (stereo not shown) [Example 314],< 100
14,[2H]C([2H])([2H])c1ccc(-c2c(=O)n(-c3ccc4nn(C)cc4c3)nc3ccc(NCC)nc23)cn1 [Example 320],< 100
15,"[2H]C([2H])([2H])Oc1ccc(-n2nc3ccc(NCC(F)(F)F)nc3c(-c3ccc(C(F)F)nc3)c2=O)cc1 [Example 322, 4-(6-(difluoromethyl)pyridin-3-yl)-2-(4-(methoxy-d3)phenyl)-6-((2,2,2-trifluoroethyl)amino)pyrido[3,2-c]pyridazin-3(2H)-one]",< 100
16,[2H]C([2H])([2H])C([2H])([2H])Nc1ccc2nn(-c3ccc4nn(C)cc4c3)c(=O)c(-c3ccc(C(F)F)nc3)c2n1 [Example 324],< 100
17,[2H]C([2H])([2H])n1cc2cc(-n3nc4ccc(NC([2H])([2H])C([2H])([2H])[2H])nc4c(-c4ccc(C)nc4)c3=O)ccc2n1 [Example 325],< 100
18,CCNc1ccc2nn(-c3ccc(=O)n(C)c3)c(=O)c(-c3ccc(C(F)F)nc3)c2n1 [Example 326],< 100
19,Cn1cc(-n2nc3ccc(OCC(F)F)nc3c(-c3ccc(C(F)F)nc3)c2=O)ccc1=O [Example 328],100 to 1000
20,Cn1cc(-n2nc3ccc(NCC(F)(F)F)nc3c(-c3ccc(C(F)F)nc3)c2=O)ccc1=O [Example 329],100 to 1000
21,[2H]C([2H])([2H])n1cc2cc(-n3nc4ccc(NCC)nc4c(-c4ccc(C)nc4)c3=O)ccc2n1 [Example 330],< 100
22,"CCNc1ccc2nn(-c3ccc4nn(C)cc4c3)c(=O)c(-c3ccc4[nH]cc(C#N)c4c3)c2n1 [Example 332, 5-(6-(ethylamino)-2-(2-methyl-2H-indazol-5-yl)-3-oxo-2,3-dihydropyrido[3,2-c]pyridazin-4-yl)-1H-indole-3-carbonitrile]",< 100
